According to US8420851B2, “Selective TR-β 1 agonist” (Cadila Healthcare Limited, priority 2006, dated 2013):
Values belong to the compound of their own block, whether it stands above or below them.

Key:
TR-α = target: T1, TR-α (Homo sapiens, UniProt P10827); experiment: In vitro TR-α activity (in-house protocol); assay type: cell-based
T1 sequence (P10827 1-410 isoform P10827-2): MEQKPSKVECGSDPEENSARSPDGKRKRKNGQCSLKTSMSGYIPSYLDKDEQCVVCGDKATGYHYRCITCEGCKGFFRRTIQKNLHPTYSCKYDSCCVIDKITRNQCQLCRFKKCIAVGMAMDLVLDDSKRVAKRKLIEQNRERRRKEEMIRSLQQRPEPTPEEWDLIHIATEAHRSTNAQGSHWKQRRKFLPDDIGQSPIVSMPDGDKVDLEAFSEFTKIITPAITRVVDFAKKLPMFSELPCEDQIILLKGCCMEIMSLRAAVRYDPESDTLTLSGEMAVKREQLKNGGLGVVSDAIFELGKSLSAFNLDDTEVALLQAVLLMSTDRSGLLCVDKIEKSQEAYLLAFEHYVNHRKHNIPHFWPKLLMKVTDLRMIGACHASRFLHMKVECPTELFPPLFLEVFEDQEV
Procedure: (§1) Invitro TR-α & TR-β activities were determined as per in-house protocols and the results of representative compounds are provided in tables 1 & 2 below as a proof of the efficacies of the novel class of compounds disclosed above.

TR-β = target: T2, TR-β (Homo sapiens, UniProt P10828); experiment: In vitro TR-β activity (in-house protocol); assay type: cell-based; conditions: for fold induction at 0.001 µM: Conc. 1 nM; for fold induction at 0.001 µM / fold induction at 0.01 µM / fold induction at 0.1 µM / fold induction at 1 µM: read-out: TR-β Fold Induction w.r.t T3(100 nm); for fold induction at 0.01 µM: Conc. 10 nM; for fold induction at 0.1 µM: Conc. 100 nM; for fold induction at 1 µM: Conc. 1000 nM
T2 sequence (P10828 1-461): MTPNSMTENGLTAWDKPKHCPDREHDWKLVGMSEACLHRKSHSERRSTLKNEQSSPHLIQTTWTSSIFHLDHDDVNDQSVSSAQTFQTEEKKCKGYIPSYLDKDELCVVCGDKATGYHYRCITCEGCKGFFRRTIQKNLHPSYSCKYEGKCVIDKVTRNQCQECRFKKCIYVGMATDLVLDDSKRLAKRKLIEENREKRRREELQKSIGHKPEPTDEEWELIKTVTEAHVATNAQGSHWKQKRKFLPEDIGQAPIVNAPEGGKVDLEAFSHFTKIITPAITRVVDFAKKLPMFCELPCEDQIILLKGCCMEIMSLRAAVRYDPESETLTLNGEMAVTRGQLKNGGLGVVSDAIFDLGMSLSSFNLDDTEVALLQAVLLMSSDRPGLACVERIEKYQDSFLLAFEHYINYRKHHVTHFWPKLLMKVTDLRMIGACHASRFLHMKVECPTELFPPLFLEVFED
Procedure: as §1

TR-α Fold Induction w.r.t T3(100 nm) (TR-α; Conc. 1 nM): 12.66
TR-α Fold Induction w.r.t T3(100 nm) (TR-α; Conc. 10 nM): 26.23
TR-α Fold Induction w.r.t T3(100 nm) (TR-α; Conc. 100 nM): 62.95
TR-α Fold Induction w.r.t T3(100 nm) (TR-α; Conc. 1000 nM): 53.76
fold induction at 0.001 µM (TR-β): 8.37
fold induction at 0.01 µM (TR-β): 21.3
fold induction at 0.1 µM (TR-β): 51.1
fold induction at 1 µM (TR-β): 55.7
Compound: CC(C)(C)c1cc(Oc2c(Cl)cc(N(CC(=O)O)CC(=O)O)cc2Cl)ccc1O [Example 34, {[4-(3-tert-Butyl-4-hydroxy-phenoxy)-3,5-dichloro-phenyl]-carboxymethyl-amino}-acetic acid]

Compound: CC(C)(C)c1cc(Oc2c(Cl)cc(N(CC(=O)O)C(=O)Oc3ccc(O)cc3)cc2Cl)ccc1O [Example 35, [[4-(3-tert-Butyl-4-hydroxy-phenoxy)-3,5-dichloro-phenyl]-(4-hydroxy-phenoxycarbonyl)-amino]-acetic acid]
TR-α Fold Induction w.r.t T3(100 nm) (TR-α; Conc. 1 nM): 25.40
TR-α Fold Induction w.r.t T3(100 nm) (TR-α; Conc. 10 nM): 106.00
TR-α Fold Induction w.r.t T3(100 nm) (TR-α; Conc. 100 nM): 130.68
TR-α Fold Induction w.r.t T3(100 nm) (TR-α; Conc. 1000 nM): 72.06
fold induction at 0.001 µM (TR-β): 22.4
fold induction at 0.01 µM (TR-β): 80.5
fold induction at 0.1 µM (TR-β): 125
fold induction at 1 µM (TR-β): 81.3

TR-α Fold Induction w.r.t T3(100 nm) (TR-α; Conc. 1 nM): 14.93
TR-α Fold Induction w.r.t T3(100 nm) (TR-α; Conc. 10 nM): 40.84
TR-α Fold Induction w.r.t T3(100 nm) (TR-α; Conc. 100 nM): 71.78
TR-α Fold Induction w.r.t T3(100 nm) (TR-α; Conc. 1000 nM): 63.71
fold induction at 0.001 µM (TR-β): 21.2
fold induction at 0.01 µM (TR-β): 66.7
fold induction at 0.1 µM (TR-β): 125
fold induction at 1 µM (TR-β): 95.6
Compound: Cc1cc(N(CC(=O)O)CC(=O)O)cc(C)c1Oc1ccc(O)c(C(C)C)c1 [Example 37, {Carboxymethyl-[4-(4-hydroxy-3-isopropyl-phenoxy)-3,5-dimethyl-phenyl]-amino}-acetic acid]

Compound: CN(C)S(=O)(=O)c1cc(Oc2c(Cl)cc(N(CC(=O)O)C(=O)Oc3ccc(O)cc3)cc2Cl)ccc1O [Example 38, [[3,5-Dichloro-4-(3-dimethylsulfamoyl-4-hydroxy-phenoxy)-phenyl]-(4-hydroxy-phenoxycarbonyl)-amino]-acetic acid]
TR-α Fold Induction w.r.t T3(100 nm) (TR-α; Conc. 1 nM): 09.36
TR-α Fold Induction w.r.t T3(100 nm) (TR-α; Conc. 10 nM): 13.61
TR-α Fold Induction w.r.t T3(100 nm) (TR-α; Conc. 100 nM): 25.32
TR-α Fold Induction w.r.t T3(100 nm) (TR-α; Conc. 1000 nM): 41.59
fold induction at 0.001 µM (TR-β): 12.3
fold induction at 0.01 µM (TR-β): 16.9
fold induction at 0.1 µM (TR-β): 43.5
fold induction at 1 µM (TR-β): 81.4

Compound: O=C(O)CN(C(=O)Oc1ccc(O)cc1)c1cc(Cl)c(Oc2ccc(O)c(S(=O)(=O)N3CCCCC3)c2)c(Cl)c1 [Example 41, [{3,5-Dichloro-4-[4-hydroxy-3-(piperidine-1-sulfonyl)-phenoxy]-phenyl}-(4-hydroxy-phenoxycarbonyl)-amino]-acetic acid]
TR-α Fold Induction w.r.t T3(100 nm) (TR-α; Conc. 1 nM): 20.78
TR-α Fold Induction w.r.t T3(100 nm) (TR-α; Conc. 10 nM): 56.19
TR-α Fold Induction w.r.t T3(100 nm) (TR-α; Conc. 100 nM): 99.00
TR-α Fold Induction w.r.t T3(100 nm) (TR-α; Conc. 1000 nM): 78.50
fold induction at 0.001 µM (TR-β): 23.3
fold induction at 0.01 µM (TR-β): 73.5
fold induction at 0.1 µM (TR-β): 90
fold induction at 1 µM (TR-β): 67

Compound: Cc1cc(N(CC(=O)O)C(=O)Oc2ccc(O)cc2)cc(C)c1Oc1ccc(O)c(C(C)C)c1 [Example 42, [[4-(4-Hydroxy-3-isopropyl-phenoxy)-3,5-dimethyl-phenyl]-(4-hydroxy-phenoxycarbonyl)-amino]-acetic acid]
TR-α Fold Induction w.r.t T3(100 nm) (TR-α; Conc. 1 nM): 11.05
TR-α Fold Induction w.r.t T3(100 nm) (TR-α; Conc. 10 nM): 26.63
TR-α Fold Induction w.r.t T3(100 nm) (TR-α; Conc. 100 nM): 72.96
TR-α Fold Induction w.r.t T3(100 nm) (TR-α; Conc. 1000 nM): 80.89
fold induction at 0.001 µM (TR-β): 12.9
fold induction at 0.01 µM (TR-β): 41.4
fold induction at 0.1 µM (TR-β): 91.9
fold induction at 1 µM (TR-β): 86

Compound: O=C(O)CN(C(=O)Oc1ccc(O)cc1)c1cc(Cl)c(Oc2ccc(O)c(C(=O)c3ccc(Cl)cc3)c2)c(Cl)c1 [Example 44, [{3,5-Dichloro-4-[3-(4-chloro-benzoyl)-4-hydroxy-phenoxy]-phenyl}-(4-hydroxy-phenoxycarbonyl)-amino]-acetic acid]
EC50 (TR-α): 84.8 nM
EC50 (TR-β): 14.8 nM

Compound: CC(C)NS(=O)(=O)c1cc(Oc2c(Cl)cc(N(CC(=O)O)C(=O)Oc3ccc(O)cc3)cc2Cl)ccc1O [Example 45, [[3,5-Dichloro-4-(4-hydroxy-3-isopropylsulfamoyl-phenoxy)-phenyl]-(4-hydroxy-phenoxycarbonyl)-amino]-acetic acid]
TR-α Fold Induction w.r.t T3(100 nm) (TR-α; Conc. 1 nM): 10.48
TR-α Fold Induction w.r.t T3(100 nm) (TR-α; Conc. 10 nM): 12.02
TR-α Fold Induction w.r.t T3(100 nm) (TR-α; Conc. 100 nM): 23.05
TR-α Fold Induction w.r.t T3(100 nm) (TR-α; Conc. 1000 nM): 50.62
fold induction at 0.001 µM (TR-β): 13.5
fold induction at 0.01 µM (TR-β): 18.7
fold induction at 0.1 µM (TR-β): 47.1
fold induction at 1 µM (TR-β): 88.9

Compound: O=C(O)CN(C(=O)Oc1ccc(O)cc1)c1cc(Cl)c(Oc2ccc(O)c(C(=O)c3cccc(Cl)c3)c2)c(Cl)c1 [Example 47, [{3,5-Dichloro-4-[3-(3-chloro-benzoyl)-4-hydroxy-phenoxy]-phenyl}-(4-hydroxy-phenoxycarbonyl)-amino]-acetic acid]
EC50 (TR-α): 16.4 nM
EC50 (TR-β): 11.3 nM

Compound: CCc1cc(Oc2c(Cl)cc(N(CC(=O)O)C(=O)Oc3ccc(O)cc3)cc2Cl)ccc1O [Example 48, [[3,5-Dichloro-4-(3-ethyl-4-hydroxy-phenoxy)-phenyl]-(4-hydroxy-phenoxycarbonyl)-amino]-acetic acid]
TR-α Fold Induction w.r.t T3(100 nm) (TR-α; Conc. 1 nM): 08.16
TR-α Fold Induction w.r.t T3(100 nm) (TR-α; Conc. 10 nM): 17.51
TR-α Fold Induction w.r.t T3(100 nm) (TR-α; Conc. 100 nM): 34.61
TR-α Fold Induction w.r.t T3(100 nm) (TR-α; Conc. 1000 nM): 45.08
fold induction at 0.001 µM (TR-β): 9.02
fold induction at 0.01 µM (TR-β): 19.4
fold induction at 0.1 µM (TR-β): 47.7
fold induction at 1 µM (TR-β): 37.6

Compound: O=C(O)CN(C(=O)Oc1ccc(O)cc1)c1cc(Cl)c(Oc2ccc(O)c(-c3ccccc3)c2)c(Cl)c1 [Example 49, [[3,5-Dichloro-4-(6-hydroxy-biphenyl-3-yloxy)-phenyl]-(4-hydroxy-phenoxycarbonyl)-amino]-acetic acid]
EC50 (TR-α): 38 nM
EC50 (TR-β): 10.3 nM

Compound: O=C(O)CN(C(=O)Oc1ccc(O)cc1)c1cc(Cl)c(Oc2ccc(O)c(Cc3ccccc3)c2)c(Cl)c1 [Example 50, [[4-(3-Benzyl-4-hydroxy-phenoxy)-3,5-dichloro-phenyl]-(4-hydroxy-phenoxycarbonyl)-amino]-acetic acid]
EC50 (TR-α): 23.3 nM
EC50 (TR-β): 6.2 nM

Compound: O=C(O)CN(C(=O)Oc1ccc(O)cc1)c1cc(Cl)c(Oc2ccc(O)c(S(=O)(=O)NC3CCC3)c2)c(Cl)c1 [Example 51, [[3,5-Dichloro-4-(3-cyclobutylsulfamoyl-4-hydroxy-phenoxy)-phenyl]-(4-hydroxy-phenoxycarbonyl)-amino]-acetic acid]
TR-α Fold Induction w.r.t T3(100 nm) (TR-α; Conc. 1 nM): 08.05
TR-α Fold Induction w.r.t T3(100 nm) (TR-α; Conc. 10 nM): 14.43
TR-α Fold Induction w.r.t T3(100 nm) (TR-α; Conc. 100 nM): 32.52
TR-α Fold Induction w.r.t T3(100 nm) (TR-α; Conc. 1000 nM): 83.34
fold induction at 0.001 µM (TR-β): 8.68
fold induction at 0.01 µM (TR-β): 17
fold induction at 0.1 µM (TR-β): 54.6
fold induction at 1 µM (TR-β): 102

Compound: O=C(O)CN(C(=O)Oc1ccc(O)cc1)c1cc(Br)c(Oc2ccc(O)c(S(=O)(=O)NC3CC4CCC3C4)c2)c(Br)c1 (stereo not shown) [Example 53, [{4-[3-(Bicyclo[2.2.1]hept-2-ylsulfamoyl)-4-hydroxy-phenoxy]-3,5-dibromo-phenyl}-(4-hydroxy-phenoxycarbonyl)-amino]-acetic acid]
TR-α Fold Induction w.r.t T3(100 nm) (TR-α; Conc. 1 nM): 11.19
TR-α Fold Induction w.r.t T3(100 nm) (TR-α; Conc. 10 nM): 12.00
TR-α Fold Induction w.r.t T3(100 nm) (TR-α; Conc. 100 nM): 17.15
TR-α Fold Induction w.r.t T3(100 nm) (TR-α; Conc. 1000 nM): 50.30
fold induction at 0.001 µM (TR-β): 11
fold induction at 0.01 µM (TR-β): 12.9
fold induction at 0.1 µM (TR-β): 27
fold induction at 1 µM (TR-β): 91.7
